Laboratory results reported in PMC11233931, “Remodeling tumor‐associated macrophage for anti‐cancer effects by rational design of irreversible inhibition of mitogen‐activated protein kinase‐activated protein kinase 2” (MedComm, 2024).

Key:
Assay in all cases: Eurofins kinase selectivity profile against 380 other human recombinant kinases (Table S2)
Assay type in all cases: biochemical
[1] = target: T1, 380 human recombinant protein kinases (Homo sapiens, UniProt Q8IVH8); conditions: MAP4K3(h), read-out: Inhibition rate
T1 construct: purchased Eurofins (Celle Lévescault)
T1 sequence (Q8IVH8 1-894): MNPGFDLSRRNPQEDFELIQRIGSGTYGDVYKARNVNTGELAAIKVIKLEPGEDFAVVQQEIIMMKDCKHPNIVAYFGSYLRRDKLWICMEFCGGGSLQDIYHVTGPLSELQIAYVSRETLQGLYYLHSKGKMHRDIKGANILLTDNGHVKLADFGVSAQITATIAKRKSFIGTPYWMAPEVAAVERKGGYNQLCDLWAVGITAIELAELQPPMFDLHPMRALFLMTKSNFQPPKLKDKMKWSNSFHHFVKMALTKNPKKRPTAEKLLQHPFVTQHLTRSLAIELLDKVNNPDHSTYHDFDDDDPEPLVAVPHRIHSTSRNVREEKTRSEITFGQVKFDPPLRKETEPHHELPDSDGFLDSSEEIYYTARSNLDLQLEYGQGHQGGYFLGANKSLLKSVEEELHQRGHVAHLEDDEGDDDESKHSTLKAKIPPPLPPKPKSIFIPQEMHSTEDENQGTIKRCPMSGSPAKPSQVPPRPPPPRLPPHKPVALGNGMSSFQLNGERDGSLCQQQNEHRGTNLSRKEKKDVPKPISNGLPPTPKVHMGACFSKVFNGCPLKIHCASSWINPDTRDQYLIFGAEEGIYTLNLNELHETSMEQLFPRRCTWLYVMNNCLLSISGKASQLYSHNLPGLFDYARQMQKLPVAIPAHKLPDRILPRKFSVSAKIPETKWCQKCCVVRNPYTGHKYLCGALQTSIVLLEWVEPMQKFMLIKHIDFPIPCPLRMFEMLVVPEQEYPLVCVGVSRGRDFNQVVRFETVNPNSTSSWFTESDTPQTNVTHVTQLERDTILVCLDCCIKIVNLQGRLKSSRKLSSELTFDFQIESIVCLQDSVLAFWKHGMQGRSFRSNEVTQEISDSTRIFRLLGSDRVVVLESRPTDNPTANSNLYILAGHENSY
In short: (§1)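 Commercial selectivity screen of the test compound against a panel of 380 human recombinant protein kinases, run by an outside contractor at several compound concentrations to check whether its potency was specific for MK2.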

[2] = target: T2, 380 human recombinant protein kinases (Homo sapiens, UniProt Q9C098); conditions: DCAMKL3(h), read-out: Inhibition rate
T2 construct: purchased Eurofins (Celle Lévescault)
In short: as §1

[3] = target: T3, 380 human recombinant protein kinases (Homo sapiens, UniProt Q9NZJ5); conditions: PEK(h), read-out: Inhibition rate
T3 construct: purchased Eurofins (Celle Lévescault)
T3 sequence (Q9NZJ5 30-1116): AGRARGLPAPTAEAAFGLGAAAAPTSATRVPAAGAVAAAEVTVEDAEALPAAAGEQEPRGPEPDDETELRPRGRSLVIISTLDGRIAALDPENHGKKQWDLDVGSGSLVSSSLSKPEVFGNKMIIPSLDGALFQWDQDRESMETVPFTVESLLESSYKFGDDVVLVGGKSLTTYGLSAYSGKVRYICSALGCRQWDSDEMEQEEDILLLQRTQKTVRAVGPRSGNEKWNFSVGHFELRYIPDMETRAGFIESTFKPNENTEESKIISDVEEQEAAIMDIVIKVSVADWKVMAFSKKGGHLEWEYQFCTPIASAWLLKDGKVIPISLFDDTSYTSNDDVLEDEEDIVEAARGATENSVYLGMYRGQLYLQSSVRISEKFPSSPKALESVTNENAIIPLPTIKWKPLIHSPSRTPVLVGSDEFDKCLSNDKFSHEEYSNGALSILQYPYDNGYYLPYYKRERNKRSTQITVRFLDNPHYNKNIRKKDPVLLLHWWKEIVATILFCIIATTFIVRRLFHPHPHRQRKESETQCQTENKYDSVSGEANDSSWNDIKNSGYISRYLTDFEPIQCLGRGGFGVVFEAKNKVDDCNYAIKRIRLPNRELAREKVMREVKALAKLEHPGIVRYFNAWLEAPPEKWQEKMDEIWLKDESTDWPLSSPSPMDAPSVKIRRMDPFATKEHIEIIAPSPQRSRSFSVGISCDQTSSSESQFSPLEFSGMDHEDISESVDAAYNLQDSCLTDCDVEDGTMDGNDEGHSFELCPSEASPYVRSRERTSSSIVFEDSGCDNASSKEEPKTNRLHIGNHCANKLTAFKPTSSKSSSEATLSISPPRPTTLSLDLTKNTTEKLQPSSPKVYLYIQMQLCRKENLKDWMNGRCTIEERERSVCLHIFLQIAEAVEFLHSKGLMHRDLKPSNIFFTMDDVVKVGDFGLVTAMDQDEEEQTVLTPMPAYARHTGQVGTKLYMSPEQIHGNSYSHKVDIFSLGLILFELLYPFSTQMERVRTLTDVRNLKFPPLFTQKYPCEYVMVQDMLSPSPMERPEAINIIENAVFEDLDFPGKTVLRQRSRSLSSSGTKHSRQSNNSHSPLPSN
In short: as §1

[4] = target: T4, 380 human recombinant protein kinases (Homo sapiens, UniProt Q9UEW8); conditions: STK39(h), read-out: Inhibition rate (%)
T4 construct: purchased Eurofins (Celle Lévescault)
In short: as §1

T2 sequence (Q9C098 whole entry): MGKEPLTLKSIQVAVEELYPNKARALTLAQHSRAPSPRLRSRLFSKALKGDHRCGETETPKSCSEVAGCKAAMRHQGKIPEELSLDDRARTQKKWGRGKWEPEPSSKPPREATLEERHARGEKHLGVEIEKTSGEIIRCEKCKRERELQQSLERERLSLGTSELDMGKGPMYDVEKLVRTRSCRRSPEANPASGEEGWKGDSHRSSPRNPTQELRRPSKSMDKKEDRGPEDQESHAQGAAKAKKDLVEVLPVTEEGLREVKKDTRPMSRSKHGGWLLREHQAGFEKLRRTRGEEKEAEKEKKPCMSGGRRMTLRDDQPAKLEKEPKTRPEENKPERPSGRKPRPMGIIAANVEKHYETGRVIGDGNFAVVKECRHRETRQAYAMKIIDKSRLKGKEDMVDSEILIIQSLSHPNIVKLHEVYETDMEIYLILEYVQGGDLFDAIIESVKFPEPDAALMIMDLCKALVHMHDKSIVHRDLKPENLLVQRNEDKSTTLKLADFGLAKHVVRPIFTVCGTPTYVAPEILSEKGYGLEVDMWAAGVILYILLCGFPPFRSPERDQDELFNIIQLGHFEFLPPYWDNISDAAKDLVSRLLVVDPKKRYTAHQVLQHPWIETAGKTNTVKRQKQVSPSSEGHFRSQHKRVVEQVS

## C=CC(=O)Nc1cc(-c2cc(-c3cc4c([nH]3)CCNC4=O)ccn2)ccc1OC(F)(F)F [compound 11]
[1]; 10 nM
  inhibition at 0.01 µM: -8%
[1]; 100 nM
  inhibition at 0.1 µM: -4%
[1]; 1000 nM
  inhibition at 1 µM: 3%
[2]; 10 nM
  inhibition at 0.01 µM: -1%
[2]; 100 nM
  inhibition at 0.1 µM: 6%
[2]; 1000 nM
  inhibition at 1 µM: 26%
[3]; 10 nM
  inhibition at 0.01 µM: -1%
[3]; 100 nM
  inhibition at 0.1 µM: -9%
[3]; 1000 nM
  inhibition at 1 µM: 2%
[4]; 10 nM
  inhibition at 0.01 µM: -10%
[4]; 100 nM
  inhibition at 0.1 µM: -4%
[4]; 1000 nM
  inhibition at 1 µM: 5%
